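Assay format: 96-well plates, 48-hour exposure. Abbreviation: GI50, concentration required for 50% inhibition of growth.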 Calls of active or inactive are those of the source. Cut-off read from the data, not from the text of the source: active = GI50 up to about 1.1 µM and inactive = higher.
What was measured:
Test in all cases: NCI anticancer screen, dose series, 48 h
786-0 = test system: 786-0
A498 = test system: A498
A549 = test system: A549
ACHN = test system: ACHN
BT-549 = test system: BT-549
HOP-92 = test system: HOP-92
Hs-578T = test system: Hs-578T
MDA-MB-231 = test system: MDA-MB-231
MOLT-4 = test system: MOLT-4
NCI-H226 = test system: NCI-H226
NCI-H460 = test system: NCI-H460
OVCAR-8 = test system: OVCAR-8
PC-3 = test system: PC-3
RPMI-8226 = test system: RPMI-8226
SK-MEL-28 = test system: SK-MEL-28
SK-MEL-2 = test system: SK-MEL-2
SW-620 = test system: SW-620
T47D = test system: T47D
U-251 = test system: U-251
DU-145 = test system: DU-145

Measured: GI50

Oc1cccc(Nc2cc(O)nc(O)n2)c1
inactive: 786-0 > 100 µM | A498 > 100 µM | A549 > 100 µM | ACHN > 100 µM | BT-549 > 100 µM | HOP-92 66.8 µM | Hs-578T > 100 µM | MDA-MB-231 > 100 µM | MOLT-4 > 100 µM | NCI-H226 > 100 µM | NCI-H460 > 100 µM | OVCAR-8 > 100 µM | PC-3 > 100 µM | RPMI-8226 > 100 µM | SK-MEL-28 > 100 µM | SK-MEL-2 > 100 µM | SW-620 > 100 µM | T47D > 100 µM | U-251 > 100 µM

COc1c2c(c3c(c1CCC(=O)O)OC(C)(C)C=C3)OC(C)(C)C=C2
inactive: 786-0 > 100 µM | A498 > 100 µM | A549 54.5 µM | ACHN > 100 µM | BT-549 > 100 µM | DU-145 > 100 µM | Hs-578T 83.8 µM | MDA-MB-231 > 100 µM | MOLT-4 65.9 µM | NCI-H226 83.4 µM | OVCAR-8 > 100 µM | PC-3 > 100 µM | RPMI-8226 48.4 µM | SK-MEL-28 > 100 µM | SK-MEL-2 > 100 µM | SW-620 > 100 µM | T47D > 100 µM | U-251 > 100 µM

O=C(O)CSC1=NC(=O)C2(NN1)c1ccccc1-c1ccccc12
inactive: 786-0 > 10 µM | A549 > 10 µM | ACHN > 10 µM | BT-549 > 10 µM | DU-145 > 10 µM | HOP-92 > 10 µM | Hs-578T > 10 µM | MDA-MB-231 > 10 µM | MOLT-4 > 10 µM | NCI-H226 > 10 µM | NCI-H460 > 10 µM | OVCAR-8 > 10 µM | PC-3 > 10 µM | RPMI-8226 > 10 µM | SK-MEL-28 > 10 µM | SW-620 > 10 µM | T47D > 10 µM

CC(=O)Nc1ccc2nc(-c3ccccn3)c(-c3ccccn3)nc2c1
inactive: 786-0 > 100 µM | A498 > 100 µM | A549 > 100 µM | ACHN > 100 µM | BT-549 > 100 µM | DU-145 > 100 µM | HOP-92 > 100 µM | Hs-578T > 100 µM | MDA-MB-231 > 100 µM | MOLT-4 > 100 µM | NCI-H226 > 100 µM | NCI-H460 > 100 µM | OVCAR-8 > 100 µM | PC-3 > 100 µM | RPMI-8226 > 100 µM | SK-MEL-28 > 100 µM | SK-MEL-2 > 100 µM | SW-620 > 100 µM | U-251 > 100 µM

CC1=C([S+]([O-])c2ccc(C)cc2)CCC2(CCCCO2)O1 (centres undefined)
inactive: 786-0 > 100 µM | A498 > 100 µM | ACHN > 100 µM | BT-549 > 100 µM | DU-145 > 100 µM | Hs-578T > 100 µM | MDA-MB-231 > 100 µM | MOLT-4 > 100 µM | NCI-H226 > 100 µM | NCI-H460 > 100 µM | OVCAR-8 > 100 µM | PC-3 > 100 µM | RPMI-8226 66.5 µM | SK-MEL-28 > 100 µM | SK-MEL-2 64.3 µM | SW-620 > 100 µM | T47D > 100 µM | U-251 > 100 µM

CC(C)OC(=O)C1=C2c3ncccc3C(=O)N2[C@@H](Cl)[C@H](Cl)[C@H]1Cl
inactive: 786-0 55.2 µM | A498 > 100 µM | A549 > 100 µM | ACHN > 100 µM | BT-549 36.9 µM | DU-145 > 100 µM | HOP-92 46.3 µM | Hs-578T > 100 µM | MDA-MB-231 > 100 µM | MOLT-4 22.5 µM | NCI-H226 > 100 µM | NCI-H460 > 100 µM | OVCAR-8 31.7 µM | PC-3 56.6 µM | RPMI-8226 21.8 µM | SK-MEL-28 > 100 µM | SK-MEL-2 > 100 µM | SW-620 34.6 µM | U-251 56.8 µM

Nc1ccccc1CCN1CCN(CCCc2ccccc2)CC1
inactive: 786-0 31.7 µM | A498 74.5 µM | A549 70.8 µM | ACHN > 100 µM | BT-549 > 100 µM | DU-145 > 100 µM | Hs-578T > 100 µM | MDA-MB-231 61.1 µM | MOLT-4 53.3 µM | NCI-H226 44.5 µM | NCI-H460 41.1 µM | OVCAR-8 49.5 µM | PC-3 95.9 µM | RPMI-8226 27.8 µM | SK-MEL-28 97.7 µM | SK-MEL-2 > 100 µM | SW-620 95.3 µM | T47D 20.8 µM | U-251 > 100 µM

— ChEMBL document CHEMBL1201862, “PubChem BioAssay data set” (2004)
